Consider 19 compounds from ChEMBL document CHEMBL1158522, “Design, synthesis, and pharmacological evaluation of phenoxy pyridyl derivatives as dual norepinephrine reuptake inhibitors and 5-HT1A partial agonists” (Bioorg Med Chem Lett, 2010).

Molecules are shown by their SMILES.

A word on the Ki: it is the dissociation constant of the complex between target and ligand, obtained from inhibition or displacement. The EC50 is the concentration giving half of the maximal effect. A higher EC50 goes with weaker potency.

The target in series [1] is T1, Sodium-dependent serotonin transporter (Homo sapiens, UniProt P31645). Description: Displacement of [3H]citalopram from human SERT expressed in HEK293 cells by scintillation proximity assay. The format is cell-based.
The target in series [2] is T2, Sodium-dependent noradrenaline transporter (Homo sapiens, UniProt P23975). Kind of series: Displacement of [3H]nisoxetine from human NET expressed in HEK293 cells by scintillation proximity assay. Format: cell-based. (Displacement assays read how much labelled ligand stays bound in the presence of the test substance.)
Series [3] has as its target T3, 5-hydroxytryptamine receptor 1A (Homo sapiens, UniProt P08908).
T3 sequence (P08908 whole entry): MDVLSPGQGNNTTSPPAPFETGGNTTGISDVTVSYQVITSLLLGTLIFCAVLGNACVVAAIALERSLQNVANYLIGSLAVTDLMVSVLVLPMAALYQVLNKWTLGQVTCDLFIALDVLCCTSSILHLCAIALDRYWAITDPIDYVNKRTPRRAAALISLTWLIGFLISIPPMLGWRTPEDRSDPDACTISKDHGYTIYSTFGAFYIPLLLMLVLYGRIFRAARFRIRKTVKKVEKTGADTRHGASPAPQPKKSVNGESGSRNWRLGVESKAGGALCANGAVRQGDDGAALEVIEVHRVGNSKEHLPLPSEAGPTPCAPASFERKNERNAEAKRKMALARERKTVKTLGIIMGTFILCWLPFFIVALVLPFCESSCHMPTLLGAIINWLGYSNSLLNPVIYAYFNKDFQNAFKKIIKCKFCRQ
Kind of series: Displacement of [3H]8-OH-DPAT from human cloned 5HT1A receptor by filtration techniques.

Series [4] concerns the target T4, Sodium-dependent dopamine transporter (Homo sapiens, UniProt Q01959). Description: Displacement of [3H]WIN-35428 from human DAT expressed in HEK293 cells by scintillation proximity assay. The format is cell-based.
Series [5] in a line: Ratio of EC50 for SERT to EC50 for NET.
Series [6] relates to Rattus norvegicus. Kind of series: Ex vivo NET occupancy in rat brain at 10 mg/kg, sc after 1 hr. Format: functional. The settings on record: route subcutaneous.
Series [7] in a line: Plasma concentration rat at 10 mg/kg, sc after 1 hr. The format is ADME, organism-based. Set-up: dose 10 mg/kg, route subcutaneous.
For series [8], the target named is T2, Sodium-dependent noradrenaline transporter. Description: Agonist activity at NET. The format is functional.
Series [9] addresses T1, Sodium-dependent serotonin transporter. Kind of series: Agonist activity at SERT. Format: functional.
Series [10] deals with T3, 5-hydroxytryptamine receptor 1A. Description: Agonist activity at 5HT1A receptor by GTPgammaS assay. The format is functional.
The target in series [11] is T4, Sodium-dependent dopamine transporter. Description: Agonist activity at DAT. Format: functional.
The test system of series [12] is Rattus norvegicus. Kind of series: Ex vivo 5HT1A receptor occupancy in rat brain at 10 mg/kg, sc after 1 hr. The note with it: route subcutaneous. The format is functional.
Series [13] has as its target T5, 5-hydroxytryptamine receptor 1A (Homo sapiens) (UniProt P08908).
T5 sequence (whole entry): T3 sequence (P08908 whole entry)
Kind of series: Intrinsic activity at 5HT1A receptor by GTPgammaS assay. Format: functional.

T1 sequence (P31645 whole entry): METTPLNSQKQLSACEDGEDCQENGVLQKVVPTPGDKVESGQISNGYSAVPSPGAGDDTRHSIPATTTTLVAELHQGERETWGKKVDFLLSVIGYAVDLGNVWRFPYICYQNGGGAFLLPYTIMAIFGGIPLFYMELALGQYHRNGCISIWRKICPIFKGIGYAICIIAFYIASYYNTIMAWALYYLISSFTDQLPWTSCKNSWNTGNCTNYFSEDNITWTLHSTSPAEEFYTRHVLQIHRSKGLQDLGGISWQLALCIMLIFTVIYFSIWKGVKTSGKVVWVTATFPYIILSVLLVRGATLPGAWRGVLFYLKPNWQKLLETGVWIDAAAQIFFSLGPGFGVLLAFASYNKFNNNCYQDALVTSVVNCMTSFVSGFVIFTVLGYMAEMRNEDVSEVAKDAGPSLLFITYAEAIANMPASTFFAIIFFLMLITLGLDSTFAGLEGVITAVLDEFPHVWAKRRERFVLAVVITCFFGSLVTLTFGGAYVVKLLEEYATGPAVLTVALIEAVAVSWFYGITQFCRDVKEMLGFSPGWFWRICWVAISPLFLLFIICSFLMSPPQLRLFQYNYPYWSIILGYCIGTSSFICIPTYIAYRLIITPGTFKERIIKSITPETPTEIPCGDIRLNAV
T2 sequence (P23975 whole entry): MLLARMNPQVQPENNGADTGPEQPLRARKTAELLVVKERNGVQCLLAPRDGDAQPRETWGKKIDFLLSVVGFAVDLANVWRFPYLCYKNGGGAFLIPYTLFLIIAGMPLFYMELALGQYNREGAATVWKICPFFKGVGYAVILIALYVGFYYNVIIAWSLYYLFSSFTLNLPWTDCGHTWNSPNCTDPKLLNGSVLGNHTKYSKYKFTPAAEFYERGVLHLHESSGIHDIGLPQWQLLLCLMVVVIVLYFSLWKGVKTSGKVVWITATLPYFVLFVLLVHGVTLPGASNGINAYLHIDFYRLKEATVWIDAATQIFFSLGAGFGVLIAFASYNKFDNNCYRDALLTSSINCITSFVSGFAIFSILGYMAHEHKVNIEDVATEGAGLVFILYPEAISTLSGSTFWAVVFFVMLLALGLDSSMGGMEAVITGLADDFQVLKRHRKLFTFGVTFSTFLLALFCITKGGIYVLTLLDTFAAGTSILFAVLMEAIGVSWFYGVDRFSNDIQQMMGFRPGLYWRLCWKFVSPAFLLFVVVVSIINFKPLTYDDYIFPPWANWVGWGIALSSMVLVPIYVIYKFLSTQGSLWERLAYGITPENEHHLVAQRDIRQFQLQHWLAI
T4 sequence (Q01959 whole entry): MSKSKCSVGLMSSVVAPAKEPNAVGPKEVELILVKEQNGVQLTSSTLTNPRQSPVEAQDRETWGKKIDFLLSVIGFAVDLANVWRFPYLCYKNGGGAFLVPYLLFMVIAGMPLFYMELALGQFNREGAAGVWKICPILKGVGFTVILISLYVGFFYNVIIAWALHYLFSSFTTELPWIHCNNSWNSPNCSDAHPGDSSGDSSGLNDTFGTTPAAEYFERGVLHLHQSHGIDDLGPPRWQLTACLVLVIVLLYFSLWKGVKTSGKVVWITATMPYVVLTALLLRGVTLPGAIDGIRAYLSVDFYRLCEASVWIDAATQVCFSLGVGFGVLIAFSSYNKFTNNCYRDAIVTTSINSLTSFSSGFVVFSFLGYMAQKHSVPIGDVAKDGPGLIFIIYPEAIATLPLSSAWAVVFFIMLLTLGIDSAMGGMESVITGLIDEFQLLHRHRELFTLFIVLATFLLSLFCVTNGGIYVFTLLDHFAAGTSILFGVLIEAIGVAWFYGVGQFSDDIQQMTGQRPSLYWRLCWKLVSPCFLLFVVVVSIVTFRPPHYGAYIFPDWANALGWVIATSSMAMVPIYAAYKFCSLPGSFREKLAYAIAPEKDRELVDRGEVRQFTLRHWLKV

Take `COc1ccccc1Oc1ncccc1C1CCNCC1`: the inhibition constant Ki came to 610 nM in series [1], 292 nM in series [2], 92 nM in series [3] and 6410 nM in series [4].

Take `c1ccc(Oc2ncccc2C2CCNCC2)cc1`: the figures for the Ki in series [2], in [3] and in series [4] were 2440 nM, 101 nM and 4310 nM, respectively.

Turning to `FC(F)(F)c1ccccc1Oc1ncccc1C1CCNCC1`, the Ki in [1] was 203 nM; in [2], 140 nM; in series [3], 71 nM; in [4], more than 6650 nM.

Regarding `Fc1cccc(Cl)c1Oc1ncccc1C1CCNCC1`, the Ratio EC50 in [5] worked out at 45. Further, the Activity with Rattus norvegicus [6] came out at 75.3%; in the series on Rattus norvegicus [12], 37.4%. Besides, the inhibition constant Ki in series [1] was 194 nM; in series [2], 33 nM; in series [3], 11 nM; in series [4], more than 6180 nM. Besides, the concentration at 1 h in [7] stood at 777 ng/mL. In addition, the EC50 stood at 9 nM in [8], 409 nM in series [9], 89 nM in series [10] and 6880 nM in series [11]. Besides, the Intrinsic activity in [13] was 37%.

As to `Fc1cccc(F)c1Oc1ncccc1C1CCNCC1`, the Ki in series [1] is 1850 nM; in [3], 7.2 nM; in series [4], more than 6630 nM.

Consider `Cc1cccc(F)c1Oc1ncccc1C1CCNCC1`, for which the Ki was 102 nM in series [1], 27 nM in [2], 10 nM in series [3] and more than 6370 nM in [4].

As for `Fc1cccc(Cl)c1Oc1ncccc1N1CCNCC1`, the Ki is more than 4710 nM in [1], 663 nM in series [2], 3.7 nM in series [3] and more than 6320 nM in [4].

Regarding `Fc1ccc(Oc2ncccc2C2CCNCC2)c(F)c1`, the Ki in series [1] worked out at 30 nM; in series [2], 143 nM; in series [3], 29 nM; in [4], 2590 nM.

For `Clc1cccc(Oc2ncccc2C2CCNCC2)c1Cl`, the Ki in series [1] worked out at 2 nM; in [2] it was 25 nM; in series [3], 37 nM; in [4], 310 nM.

Regarding `COc1cccc(F)c1Oc1ncccc1C1CCNCC1`, the Ki in [1] was 887 nM; in series [2] it was 276 nM; in [3] it was 24 nM; in series [4], 6410 nM.

`Fc1ccccc1Oc1ncccc1C1CCNCC1`: the Ki in series [1] is 728 nM; in series [2], 536 nM; in series [3] it was 13 nM; in series [4], more than 6180 nM.

As for `Clc1ccccc1Oc1ncccc1C1CCNCC1`, the Ki in [1] worked out at 57 nM; in [2], 74 nM; in [3], 16 nM; in [4], 5150 nM.

On to `Cc1ccccc1Oc1ncccc1C1CCNCC1`, for which the Ki in series [1] was 292 nM; in [2], 330 nM; in series [3] it was 60 nM; in series [4], more than 6170 nM.

In the case of `Fc1ccccc1Oc1cccc(F)c1C1CCNCC1`, in series [5], the Ratio EC50 stood at 33. The Ki was 1260 nM in [1], 32 nM in series [2], 4.6 nM in series [3] and 278 nM in [4]. Also, the EC50 in series [8] was found to be 28 nM; in series [9], 915 nM; in [10], 341 nM; in series [11], 498 nM. The Intrinsic activity in series [13] came to 84%.

Take `Clc1ccccc1Oc1ncccc1N1CCNCC1`: the Ki in series [1] was more than 4710 nM; in series [2], 747 nM; in series [3], 4.5 nM; in series [4], more than 6320 nM.

With `Fc1cccc(Oc2ncccc2C2CCNCC2)c1F`, the Ki in series [1] is 109 nM; in series [2] it was 1810 nM; in [3], 173 nM; in series [4] it was more than 6650 nM.

For `Cc1ccc(Oc2ncccc2C2CCNCC2)c(F)c1`, the Ki was 36 nM in [1], 921 nM in series [2], 5.5 nM in series [3] and more than 6140 nM in series [4].

With `Fc1ccc(Cl)c(Oc2ncccc2C2CCNCC2)c1`, the Ki is 251 nM in [1], 247 nM in series [2], 17 nM in series [3] and more than 6220 nM in [4].

Turning to `Clc1ccc(Oc2ncccc2C2CCNCC2)c(Cl)c1`, the Ki in [1] is 2.7 nM; in series [2] it was 413 nM; in series [3], 37 nM; in series [4], more than 5500 nM.
